Data: ChEMBL document CHEMBL4400546, “A Cinchona Alkaloid Antibiotic That Appears To Target ATP Synthase in Streptococcus pneumoniae” (J Med Chem, 2019)

Assays:
Streptococcus pneumoniae = assay: Antibacterial activity against Streptococcus pneumoniae D39 after 20 hrs by CLSI-based microdilution method; type: functional; details: D39, 20 h
[1] = Cytotoxicity against human HepG2 cells assessed as reduction in cell viability after 48 hrs by Alamar Blue assay; type: cell-based
[2] = Drug level in ICR mouse liver microsomes treated with 6-Cyclobutoxy-(R)-4-[((1S,2S,4S,5E)-5-ethylidene-1-azabicyclo[2.2.2]octan-2-yl)hydroxymethyl]quinoline at 10 uM preincubated with NADPH for 10 mins and measured after 90 mins by LC-MS/MS analysis; type: ADME, Microsome; details: 1.5 h
[3] = Drug level in ICR mouse liver microsomes treated with 6-Cyclobutoxy-(R)-4-[((1S,2S,4S,5Z)-5-ethylidene-1-azabicyclo-[2.2.2]octan-2-yl)hydroxymethyl]quinoline at 10 uM preincubated with NADPH for 10 mins and measured after 90 mins by LC-MS/MS analysis; type: ADME, Microsome; details: 1.5 h

C=CCON=C1C[N@]2CC[C@H]1C[C@H]2[C@H](O)c1ccnc2ccc(OC)cc12
MIC (Streptococcus pneumoniae): 174 µM
CC50 at 48 h [1]: 51 µM

COc1ccc2nccc([C@@H](O)[C@@H]3C[C@@H]4CC[N@@]3CC4=O)c2c1
MIC (Streptococcus pneumoniae): > 410 µM
CC50 at 48 h [1]: > 100 µM

C/C=C1\C[N@]2CC[C@H]1C[C@H]2C(=O)c1ccnc2ccc(O)cc12
Drug uptake [2]: Active
Drug uptake [3]: Active

O=C(c1ccnc2ccc(OC3CCC3)cc12)[C@@H]1C[C@@H]2CC[N@@]1C/C2=C\CO
Drug uptake [2]: Active
Drug uptake [3]: Active

CC=C1C[N@]2CC[C@H]1C[C@H]2[C@H](O)c1ccnc2ccc(OC)cc12
MIC (Streptococcus pneumoniae): 12 µM
CC50 at 48 h [1]: > 100 µM

COc1ccc2nccc([C@@H](O)[C@@H]3C[C@@H]4CC[N@@]3CC4=NOCc3ccccc3)c2c1
MIC (Streptococcus pneumoniae): 77 µM
CC50 at 48 h [1]: > 100 µM

CC=C1C[N@]2CC[C@H]1C[C@H]2[C@@H](F)c1ccnc2ccc(OC)cc12
MIC (Streptococcus pneumoniae): > 392 µM
CC50 at 48 h [1]: > 100 µM

OC/C=C1\C[N@]2CC[C@H]1C[C@H]2[C@H](O)c1ccnc2ccc(OC3CCC3)cc12
Drug uptake [2]: Active
Drug uptake [3]: Active

COc1ccc2nccc([C@@H](O)[C@@H]3C[C@@H]4CC[N@@]3C/C4=N/OCC3CC3)c2c1
MIC (Streptococcus pneumoniae): 42 to 84 µM
CC50 at 48 h [1]: > 100 µM

C/C=C1\C[N@]2CC[C@H]1C[C@H]2[C@H](O)c1ccnc2ccc(O[C@H]3O[C@H](C(=O)O)[C@@H](O)[C@H](O)[C@H]3O)cc12
Drug uptake [2]: Active
Drug uptake [3]: Active

CC[C@H]1C[N@]2CC[C@H]1C[C@H]2[C@H](O)c1ccnc2ccc(OC3CCC3)cc12
MIC (Streptococcus pneumoniae): 5 µM
CC50 at 48 h [1]: 51 µM

CC=C1C[N@]2CC[C@H]1C[C@H]2[C@H](O)c1ccnc2ccc(OCC3CC3)cc12
MIC (Streptococcus pneumoniae): 5 µM
CC50 at 48 h [1]: > 100 µM

CC=C1C[N@]2CC[C@H]1C[C@H]2[C@H](O)c1ccnc2ccc(OCC(F)(F)F)cc12
MIC (Streptococcus pneumoniae): 5 µM
CC50 at 48 h [1]: > 100 µM

C/C=C1\CN2CC[C@H]1C[C@H]2[C@H](O)c1ccnc2ccc(O)cc12
Drug uptake [2]: Active
Drug uptake [3]: Active

O=c1cc([C@@H](O)[C@@H]2C[C@@H]3CC[N@@]2C/C3=C\CO)c2cc(OC3CCC3)ccc2[nH]1
Drug uptake [2]: Active
Drug uptake [3]: Active

CCCO/N=C1/C[N@]2CC[C@H]1C[C@H]2[C@H](O)c1ccnc2ccc(OC)cc12
MIC (Streptococcus pneumoniae): 86 µM
CC50 at 48 h [1]: > 100 µM

CC[C@H]1C[N@]2CC[C@H]1C[C@H]2[C@H](O)c1ccnc2ccc(OCC3CC3)cc12
MIC (Streptococcus pneumoniae): 22 µM
CC50 at 48 h [1]: 87 µM

C=C[C@H]1C[N@@]2CC[C@H]1C[C@H]2[C@H](O)c1ccnc2ccc(OC)cc12 [QUININE]
CC50 at 48 h [1]: > 100 µM

COc1ccc2nccc([C@@H](O)[C@@H]3C[C@@H]4CC[N@@]3C/C4=N/OC(C)C)c2c1
MIC (Streptococcus pneumoniae): 43 to 86 µM
CC50 at 48 h [1]: > 100 µM

C=C[C@H]1CN2CC[C@@H]1C[C@H](F)[C@H]2c1ccnc2ccc(OC)cc12
MIC (Streptococcus pneumoniae): 392 µM
CC50 at 48 h [1]: > 100 µM

CC=C1C[N@]2CC[C@H]1C[C@H]2[C@H](O)c1ccnc2ccc(OCC)cc12
MIC (Streptococcus pneumoniae): 1 µM
CC50 at 48 h [1]: > 100 µM

COc1ccc2nccc([C@@H](O)[C@@H]3C[C@@H]4CC[N@@]3C[C@@H]4[C@H](O)CO)c2c1
MIC (Streptococcus pneumoniae): > 357 µM
CC50 at 48 h [1]: > 100 µM

CC[C@H]1CN2CC[C@H]1C[C@H]2[C@H](O)c1ccnc2ccc(OC)cc12 [HYDROQUININE]
MIC (Streptococcus pneumoniae): 98 µM
CC50 at 48 h [1]: > 100 µM

C#CCON=C1C[N@]2CC[C@H]1C[C@H]2[C@H](O)c1ccnc2ccc(OC)cc12
MIC (Streptococcus pneumoniae): 175 µM
CC50 at 48 h [1]: > 100 µM

CC[C@H]1C[N@]2CC[C@H]1C[C@H]2[C@H](O)c1ccnc2ccc(OCC(F)(F)F)cc12
MIC (Streptococcus pneumoniae): 10 µM
CC50 at 48 h [1]: 72 µM

CC=C1C[N@]2CC[C@H]1C[C@H]2[C@H](O)c1ccnc2ccc(OCCC)cc12
MIC (Streptococcus pneumoniae): 3 to 6 µM
CC50 at 48 h [1]: 51 µM

COc1ccc2nccc([C@@H](O)[C@@H]3C[C@@H]4CC[N@@]3CC4=NOC3CCC3)c2c1
MIC (Streptococcus pneumoniae): 84 µM
CC50 at 48 h [1]: > 100 µM

COc1ccc2nccc([C@@H](O)[C@@H]3C[C@@H]4CC[N@@]3CC4=NOCC(F)(F)F)c2c1
MIC (Streptococcus pneumoniae): > 313 µM
CC50 at 48 h [1]: > 100 µM

CC=C1C[N@]2CC[C@H]1C[C@H]2[C@H](O)c1ccnc2ccc(OCCCC)cc12
MIC (Streptococcus pneumoniae): 11 µM
CC50 at 48 h [1]: 27 µM

COc1ccc2nccc([C@@H](O)[C@@H]3C[C@@H]4CC[N@@]3C/C4=N/OC3CCCC3)c2c1
MIC (Streptococcus pneumoniae): 40 to 81 µM
CC50 at 48 h [1]: > 100 µM

CC=C1C[N@]2CC[C@H]1C[C@@H]2[C@@H](O)c1ccnc2ccc(OC)cc12
MIC (Streptococcus pneumoniae): > 395 µM
CC50 at 48 h [1]: > 100 µM

C=CCOc1ccc2nccc([C@@H](O)[C@@H]3C[C@@H]4CC[N@@]3CC4=CC)c2c1
MIC (Streptococcus pneumoniae): 4 µM
CC50 at 48 h [1]: 54 µM

CCOC(=O)CCCON=C1C[N@]2CC[C@H]1C[C@H]2[C@H](O)c1ccnc2ccc(OC)cc12
MIC (Streptococcus pneumoniae): 299 µM
CC50 at 48 h [1]: > 100 µM

CC=C1C[N@]2CC[C@H]1C[C@H]2[C@H](O)c1ccnc2ccc(OCc3ccccc3)cc12
MIC (Streptococcus pneumoniae): 40 µM
CC50 at 48 h [1]: 47 µM

CCCCOc1ccc2nccc([C@@H](O)[C@@H]3C[C@@H]4CC[N@@]3C[C@@H]4CC)c2c1
MIC (Streptococcus pneumoniae): 22 µM
CC50 at 48 h [1]: 41 µM

CCCCON=C1C[N@]2CC[C@H]1C[C@H]2[C@H](O)c1ccnc2ccc(OC)cc12
MIC (Streptococcus pneumoniae): 21 to 42 µM
CC50 at 48 h [1]: > 100 µM

CC[C@H]1CN2CC[C@H]1C[C@H]2[C@H](O)c1ccnc2ccc(O)cc12
MIC (Streptococcus pneumoniae): 204 µM
CC50 at 48 h [1]: > 100 µM

CCON=C1C[N@]2CC[C@H]1C[C@H]2[C@H](O)c1ccnc2ccc(OC)cc12
MIC (Streptococcus pneumoniae): 360 µM
CC50 at 48 h [1]: > 100 µM

CC=C1C[N@]2CC[C@H]1C[C@H]2[C@H](O)c1ccnc2ccc(OC(C)C)cc12
MIC (Streptococcus pneumoniae): 1 µM
CC50 at 48 h [1]: 54 µM

COc1ccc2nccc([C@@H](O)[C@@H]3C[C@@H]4CC[N@@]3C/C4=N/O)c2c1
MIC (Streptococcus pneumoniae): > 391 µM
CC50 at 48 h [1]: > 100 µM

CON=C1C[N@]2CC[C@H]1C[C@H]2[C@H](O)c1ccnc2ccc(OC)cc12
MIC (Streptococcus pneumoniae): 375 to 750 µM
CC50 at 48 h [1]: > 100 µM

CC[C@H]1C[N@]2CC[C@H]1C[C@@H]2[C@H](F)c1ccnc2ccc(OC)cc12
MIC (Streptococcus pneumoniae): > 390 µM
CC50 at 48 h [1]: > 100 µM

COC(=O)CCCON=C1C[N@]2CC[C@H]1C[C@H]2[C@H](O)c1ccnc2ccc(OC)cc12
MIC (Streptococcus pneumoniae): 299 µM
CC50 at 48 h [1]: > 100 µM

CC=C1C[N@]2CC[C@H]1C[C@H]2[C@H](O)c1ccnc2ccc(OC3CCCC3)cc12
MIC (Streptococcus pneumoniae): 5 µM
CC50 at 48 h [1]: 48 µM

CC[C@H]1C[N@]2CC[C@H]1C[C@H]2[C@H](O)c1ccnc2ccc(OCc3ccccc3)cc12
MIC (Streptococcus pneumoniae): 16 to 32 µg/mL
CC50 at 48 h [1]: 76 µM

CC=C1C[N@]2CC[C@H]1C[C@@H]2[C@H](F)c1ccnc2ccc(OC)cc12
MIC (Streptococcus pneumoniae): 392 µM
CC50 at 48 h [1]: > 100 µM

CC[C@H]1C[N@]2CC[C@H]1C[C@H]2[C@H](O)c1ccnc2ccc(OC(C)C)cc12
MIC (Streptococcus pneumoniae): 11 µM
CC50 at 48 h [1]: 86 µM

CC=CC1C[N@]2CC[C@H]1C[C@H]2[C@H](O)c1ccnc2ccc(OC)cc12 (stereo partly drawn)
MIC (Streptococcus pneumoniae): 12 µM
CC50 at 48 h [1]: > 100 µM

C=CCOc1ccc2nccc([C@@H](O)[C@@H]3C[C@@H]4CC[N@@]3C[C@@H]4CC)c2c1
MIC (Streptococcus pneumoniae): 11 to 22 µM
CC50 at 48 h [1]: 78 µM

CCCOc1ccc2nccc([C@@H](O)[C@@H]3C[C@@H]4CC[N@@]3C[C@@H]4CC)c2c1
MIC (Streptococcus pneumoniae): 11 µM
CC50 at 48 h [1]: 57 µM

CC=C1C[N@]2CC[C@H]1C[C@H]2[C@H](O)c1ccnc2ccc(OC(C)CO)cc12 (mixture of isomers)
MIC (Streptococcus pneumoniae): 5 µM
CC50 at 48 h [1]: > 100 µM

CC[C@H]1C[N@]2CC[C@H]1C[C@H]2[C@H](O)c1ccnc2ccc(OC3CCCC3)cc12
MIC (Streptococcus pneumoniae): 5 µM
CC50 at 48 h [1]: > 100 µM
